From ChEMBL document CHEMBL1201862, “PubChem BioAssay data set” (2004)
Values joined by “and” are separate entries in the source; they are usually repeats but may differ in a detail not shown here. Equal entries are not always repeated. Active and inactive are the calls of the source.

Tests used:
[1] = system: Vero; assay: mammalian cell viability reduction – secondary assay, cytotoxicity control for West Nile virus antiviral project, dose response (AID 1650); assay type: functional; conditions: Chlorocebus sabaeus
[2] = target: T1, DNA repair protein RAD52 homolog (Homo sapiens, UniProt P43351); assay type: functional, biochemical
T1 sequence (P43351 whole entry): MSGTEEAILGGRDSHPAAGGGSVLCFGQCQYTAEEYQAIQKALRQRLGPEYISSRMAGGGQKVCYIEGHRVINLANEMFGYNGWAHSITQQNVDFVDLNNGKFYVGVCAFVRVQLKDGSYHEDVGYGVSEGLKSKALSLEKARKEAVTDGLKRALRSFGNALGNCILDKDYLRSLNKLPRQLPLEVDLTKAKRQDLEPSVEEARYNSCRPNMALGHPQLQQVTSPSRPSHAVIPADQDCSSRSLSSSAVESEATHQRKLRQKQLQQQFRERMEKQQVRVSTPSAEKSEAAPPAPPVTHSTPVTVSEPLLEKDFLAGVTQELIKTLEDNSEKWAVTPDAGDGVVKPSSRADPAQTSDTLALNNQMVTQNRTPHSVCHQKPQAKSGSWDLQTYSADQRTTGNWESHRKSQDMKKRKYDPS

[3] = target: T2, Neuropeptide Y receptor type 2 (Homo sapiens, UniProt P49146); assay type: functional, cell-based;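 further: HEK293 cells expressing the receptor and a CNG channel; stimulus was NPY near EC95 followed by isoproterenol to raise cAMP; antagonist potency measured as restoring cAMP signal that NPY suppresses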
T2 sequence (P49146 whole entry): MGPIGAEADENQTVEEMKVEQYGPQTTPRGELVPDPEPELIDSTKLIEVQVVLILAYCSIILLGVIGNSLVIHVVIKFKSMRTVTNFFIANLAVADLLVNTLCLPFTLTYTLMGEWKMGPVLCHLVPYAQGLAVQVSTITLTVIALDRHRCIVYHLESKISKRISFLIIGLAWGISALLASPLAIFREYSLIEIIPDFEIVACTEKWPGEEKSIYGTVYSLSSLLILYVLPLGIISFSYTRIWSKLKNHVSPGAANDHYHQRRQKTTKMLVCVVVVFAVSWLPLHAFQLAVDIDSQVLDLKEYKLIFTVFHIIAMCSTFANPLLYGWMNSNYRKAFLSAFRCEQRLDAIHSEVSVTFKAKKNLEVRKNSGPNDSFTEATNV

[4] = target: T3, Neuropeptide Y receptor type 1 (Homo sapiens, UniProt P25929); assay type: functional;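 further: HEK293 cells with a CNG channel challenged with NPY then isoproterenol; potency as antagonist that reverses NPY suppression of cAMP signal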
T3 sequence (P25929 whole entry): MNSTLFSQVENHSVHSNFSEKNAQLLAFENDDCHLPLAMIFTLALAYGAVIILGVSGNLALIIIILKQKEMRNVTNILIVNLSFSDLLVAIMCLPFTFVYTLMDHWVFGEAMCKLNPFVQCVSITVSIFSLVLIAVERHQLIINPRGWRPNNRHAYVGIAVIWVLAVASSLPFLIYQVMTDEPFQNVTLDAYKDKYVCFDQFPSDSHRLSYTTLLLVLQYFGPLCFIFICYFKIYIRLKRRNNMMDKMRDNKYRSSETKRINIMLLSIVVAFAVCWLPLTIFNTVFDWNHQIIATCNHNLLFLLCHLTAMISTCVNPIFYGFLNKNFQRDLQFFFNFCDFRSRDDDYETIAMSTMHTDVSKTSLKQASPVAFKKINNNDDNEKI

[5] = viability inhibitors of stage V gametocytes – luminescence, dose response (AID 1117278); assay type: functional, cell-based;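 further: gametocytes exposed to compound for 24 hours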
[6] = target: T4, Heat shock factor protein 1 (Mus musculus, UniProt P38532); assay: decrease of HSF1-responsive luciferase luminescence – cell-based, NIH3T3, dose retest, confirmation (AID 2382); assay type: functional;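 further: NIH3T3 fibroblasts with HSF1-driven luciferase reporter stressed by proteasome inhibitor MG132; luminescence from HSF1-driven luciferase expression after 8 hours of MG132 stress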
T4 sequence (P38532 whole entry): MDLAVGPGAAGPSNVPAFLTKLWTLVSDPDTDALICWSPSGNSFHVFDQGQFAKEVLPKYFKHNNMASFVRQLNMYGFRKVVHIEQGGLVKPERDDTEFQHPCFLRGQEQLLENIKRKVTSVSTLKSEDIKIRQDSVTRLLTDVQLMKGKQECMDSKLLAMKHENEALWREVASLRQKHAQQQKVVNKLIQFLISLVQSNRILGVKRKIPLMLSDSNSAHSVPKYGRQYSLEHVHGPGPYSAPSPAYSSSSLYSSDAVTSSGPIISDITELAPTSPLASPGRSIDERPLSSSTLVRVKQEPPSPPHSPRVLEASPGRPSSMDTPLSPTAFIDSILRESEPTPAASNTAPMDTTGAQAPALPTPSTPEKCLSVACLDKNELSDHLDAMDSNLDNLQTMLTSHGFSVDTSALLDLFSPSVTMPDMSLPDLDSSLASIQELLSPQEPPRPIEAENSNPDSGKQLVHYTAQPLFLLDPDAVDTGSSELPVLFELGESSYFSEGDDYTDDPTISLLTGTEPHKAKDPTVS

[7] = viability loss in human Jurkat cells – cell-based, luminescence, cytotoxicity control for P. falciparum gametocyte viability project, dose response (AID 1117277); assay type: functional;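 further: potency reflects loss of cellular ATP meaning fewer viable cells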
[8] = Dd2 malaria parasite growth inhibition potency – SYBR Green, dry powder samples, dose response (AID 1159566); assay type: functional, cell-based;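 further: potency for growth inhibition with lower SYBR green DNA signal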
[9] = growth inhibition of PfATP4-mutant resistant parasites – NITD609-resistant line, SYBR Green, dry powder, dose response (AID 1159571); assay type: functional, cell-based;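 further: parasites synchronized at ring stage by sorbitol before testing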
[10] = growth inhibition of yeast DHODH-expressing 3D7 parasites – SYBR Green, dry powder samples, dose response (AID 1159570); assay type: functional, cell-based;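 further: parasite growth measured after 72 hours of compound exposure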
[11] = P. falciparum Dd2 growth inhibitors, dose response, SYBR Green, cherry-picked samples (AID 1159567); assay type: functional, cell-based
[12] = toxicity to human HepG2 hepatoma cells – cell-based, plate reader, dry powder samples, cytotoxicity control, dose response (AID 1159569); assay type: functional;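 further: inhibitor potency with signal falling toward the positive control level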
[13] = target: T5, Estrogen receptor (Homo sapiens, UniProt P03372);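 further: potency for inhibiting coactivator peptide recruitment to the receptor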
T5 sequence (P03372 whole entry): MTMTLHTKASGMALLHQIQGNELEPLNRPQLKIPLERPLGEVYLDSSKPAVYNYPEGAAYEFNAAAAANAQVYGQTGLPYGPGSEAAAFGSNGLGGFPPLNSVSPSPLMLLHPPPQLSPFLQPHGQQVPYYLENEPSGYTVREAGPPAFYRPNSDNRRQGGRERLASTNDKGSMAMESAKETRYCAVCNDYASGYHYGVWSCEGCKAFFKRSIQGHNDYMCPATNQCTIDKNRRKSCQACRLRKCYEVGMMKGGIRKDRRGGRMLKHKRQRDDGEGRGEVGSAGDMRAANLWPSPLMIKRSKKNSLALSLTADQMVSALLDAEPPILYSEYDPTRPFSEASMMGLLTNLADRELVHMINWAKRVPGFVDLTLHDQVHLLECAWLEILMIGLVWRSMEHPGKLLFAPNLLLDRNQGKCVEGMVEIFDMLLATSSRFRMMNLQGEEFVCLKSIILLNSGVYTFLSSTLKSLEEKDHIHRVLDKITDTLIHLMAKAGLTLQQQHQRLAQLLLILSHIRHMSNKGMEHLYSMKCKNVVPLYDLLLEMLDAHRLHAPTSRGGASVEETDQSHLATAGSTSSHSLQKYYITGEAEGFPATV

[14] = toxicity to human hepatoma HepG2 cells – cell-based, cherry-picked samples, cytotoxicity control, dose response (AID 1159577); assay type: functional
[15] = cells
[16] = target: T6, Mannose-6-phosphate isomerase (Homo sapiens, UniProt P34949); assay: MPI inhibition at elevated mannose 6-phosphate – biochemical, fluorescence intensity, high mannose 6-phosphate, primary screen (AID 1220)
T6 sequence (P34949 whole entry): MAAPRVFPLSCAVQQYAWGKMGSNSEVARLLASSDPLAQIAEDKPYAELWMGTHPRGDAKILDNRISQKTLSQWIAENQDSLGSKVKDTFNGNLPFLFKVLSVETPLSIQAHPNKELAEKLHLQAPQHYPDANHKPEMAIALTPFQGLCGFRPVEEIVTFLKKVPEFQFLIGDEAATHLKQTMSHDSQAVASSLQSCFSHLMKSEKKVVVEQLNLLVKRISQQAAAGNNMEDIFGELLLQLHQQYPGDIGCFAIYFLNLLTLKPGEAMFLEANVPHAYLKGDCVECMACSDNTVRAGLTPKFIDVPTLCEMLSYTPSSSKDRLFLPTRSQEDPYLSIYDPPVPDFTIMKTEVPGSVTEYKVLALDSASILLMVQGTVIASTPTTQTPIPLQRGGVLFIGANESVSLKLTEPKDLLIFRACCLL

[17] = target: Major prion protein (Homo sapiens, UniProt P04156); assay type: functional, cell-based
[18] = viability loss in THP-1 monocytes – THP-1 cells, cytotoxicity control for Vif-APOBEC3G degradation inhibitor project, dose response (AID 1117359); assay type: functional; conditions: THP-1
[19] = target: T7, Coagulation factor XII (Homo sapiens, UniProt P00748); assay type: functional;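 further: activated factor XIIa alpha cleaving a fluorogenic AMC peptide substrate; inhibitor potency from loss of enzyme activity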
T7 sequence (P00748 whole entry): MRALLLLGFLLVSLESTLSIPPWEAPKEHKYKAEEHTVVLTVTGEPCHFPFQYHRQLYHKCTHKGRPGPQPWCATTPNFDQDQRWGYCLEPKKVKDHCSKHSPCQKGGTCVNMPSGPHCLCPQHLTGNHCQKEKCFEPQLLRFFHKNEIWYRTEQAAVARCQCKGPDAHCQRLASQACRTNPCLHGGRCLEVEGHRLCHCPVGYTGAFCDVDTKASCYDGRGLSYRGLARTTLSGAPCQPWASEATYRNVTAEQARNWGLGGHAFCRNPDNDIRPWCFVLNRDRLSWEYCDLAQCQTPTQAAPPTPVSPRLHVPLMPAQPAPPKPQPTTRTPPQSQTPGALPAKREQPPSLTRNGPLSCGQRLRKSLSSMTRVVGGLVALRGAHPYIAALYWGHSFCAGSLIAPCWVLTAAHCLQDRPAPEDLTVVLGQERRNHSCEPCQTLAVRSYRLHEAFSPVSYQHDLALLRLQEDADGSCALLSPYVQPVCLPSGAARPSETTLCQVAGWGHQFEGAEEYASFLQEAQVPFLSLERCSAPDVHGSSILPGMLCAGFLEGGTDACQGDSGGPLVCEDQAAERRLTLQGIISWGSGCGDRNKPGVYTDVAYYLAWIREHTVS

[20] = target: T8, Estrogen receptor beta (Homo sapiens, UniProt Q92731); assay: blockers of SRC-3 recruitment to ERβ – biochemical, ELISA, streptavidin-HRP readout, orthogonal assay, confirmation (AID 1060)
[21] = target: T8, Estrogen receptor beta
[22] = blockers of bursicon-stimulated LGR2 cAMP reporter – cell-based, HEK293, CRE-luciferase reporter, cherry pick, set 2, dose response (AID 743343); assay type: functional;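 further: transfected cells were stimulated with diluted bursicon conditioned medium after compound addition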
[23] = A549 cell cytotoxicity, dose response, cytotoxicity control, plate reader, cherry-pick, antagonist series (AID 743412); assay type: functional, cell-based
[24] = toxicity toward HepG2 liver cells – cell-based, plate reader, cherry-pick, antagonist series, cytotoxicity control, dose response (AID 743416); assay type: functional
[25] = blockade of melanocortin 4 receptor signaling – cell-based, plate reader, cherry pick, counter-screen for LGR2 antagonist project, dose response (AID 743444); assay type: functional;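 further: transfected HEK 293 cells stimulated with alpha-MSH peptide; potency of inhibitors of the alpha-MSH evoked signal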

CCN(CC)CCNC(=O)c1cc2c(-c3cccc(OC)c3)nn(C)c2s1
CC50 [1]: > 100 µM (active)
AC50 [2]: 3.79 µM (active)

Cc1ccc(NC(=O)C(=O)NCCOc2ccc(Cl)cc2)c(C)c1
IC50 [3]: 7.41 µM (active)
IC50 [4]: 7.39 µM (active)

COc1ccc(OC)c(C(=O)c2ccc(C(=O)O)cc2)c1
IC50 [5]: > 109 µM (inactive)
EC50 [6]: > 195 µM (not active)
IC50 [7]: > 83.3 µM (inactive)

COc1ccc(C#Cc2ccc3c(c2)[C@H]2[C@H](CCN2Cc2nccs2)[C@H](CO)N3)cc1
AC50 [8]: 1.76 µM (active)
AC50 [9]: 1.87 µM (active)
AC50 [10]: 2.95 µM (active)
AC50 [11]: 2.09 µM (active)
AC50 [12]: 59.9 µM (active)

CCCCOc1nc2ccccc2c(=O)n1-c1ccccc1
IC50 [3]: 8.15 µM (active)
IC50 [4]: 13.2 µM (not active)

COc1ccccc1NC(=O)c1ccccc1NC(=O)c1cc(Cl)ccc1NC(=O)c1ccco1
IC50 [5]: > 109 µM (inactive)
IC50 [13]: 12.5 µM (active)
IC50 [7]: > 83.3 µM (inactive)

C[C@@H]1CN([C@@H](C)CO)S(=O)(=O)c2ccc(C#Cc3ccccc3)cc2O[C@H]1CN(C)C(=O)C1CC1
AC50 [11]: 4.38 µM (active)
AC50 [14]: > 39 µM (inactive)

CCOC(=O)c1c(-c2ccc(C)s2)csc1N
IC50 [15]: > 138 µM (inactive)
IC50 [16]: 35.4 µM (active)
IC50 [17]: 104 µM (inactive)

C[C@H](CO)N1C[C@H](C)[C@@H](CN(C)C(=O)Nc2ccc3c(c2)OCO3)Oc2ccc(NC(=O)Nc3ccc(C(F)(F)F)cc3)cc2CC1=O
AC50 [8]: 0.276 µM (active)
AC50 [9]: 0.238 µM (active)
AC50 [10]: 0.406 µM (active)
AC50 [11]: 0.748 µM (active)
AC50 [12]: > 100 µM (inactive)

O=C1CC2=CC=CC(=O)C(=O)C2=C(O)O1
CC50 [18]: > 40 µM (active)

COc1ccc(OC)c(NC(=O)CC2C(=O)NCCN2C(=O)Nc2cccc(Cl)c2)c1 (stereo unspecified)
IC50 [19]: > 50 µM (inactive)
CC50 [18]: > 40 µM (active)

CN1C(=O)CSc2ccc(NC(=O)N3CCC(N4CCCCC4)CC3)cc21
IC50 [13]: 11.8 µM (active)
IC50 [20]: < 77 µM (not active) and < 23 nM (not active)
IC50 [21]: 6.24 µM (active)

OC[C@@H]1[C@H](c2ccc(C#Cc3ccccc3F)cc2)[C@H]2CN(Cc3cncnc3)CCCCN12
AC50 [11]: 3.54 µM (active)
AC50 [14]: 10.8 µM (active)

c1ccc(OCc2nnc3sc(C4COc5ccccc5O4)nn23)cc1 (stereo unspecified)
IC50 [13]: 9.55 µM (active)
IC50 [20]: < 23 nM (not active)
IC50 [21]: > 50 µM (not active)

O=C1CC(=O)Nc2cc(S(=O)(=O)N3CCN(c4cccc(C(F)(F)F)c4)CC3)ccc2N1
IC50 [5]: > 109 µM (inactive)
IC50 [7]: > 83.3 µM (inactive)

N#Cc1cccc(-c2ccc([C@@H]3[C@H](CO)N4CCCCN(C(=O)Nc5cccc(F)c5)C[C@@H]34)cc2)c1
AC50 [22]: 40.6 µM (active)
AC50 [23]: 16.7 µM (active)
AC50 [11]: 2.18 µM (active)
AC50 [14]: 7.5 µM (active)
AC50 [24]: > 24 µM (inactive)
AC50 [25]: 47.2 µM (active)
